pKi: −log10 of the molar value.
Target: yeast Hsc70 (Ssa1p) (Saccharomyces cerevisiae, UniProt P10591)
Experiment: single-turnover […]ATP ATPase assay with J-domain co-chaperone
Assay type: biochemical

yeast Hsc70 (Ssa1p), sequence (P10591 2-642): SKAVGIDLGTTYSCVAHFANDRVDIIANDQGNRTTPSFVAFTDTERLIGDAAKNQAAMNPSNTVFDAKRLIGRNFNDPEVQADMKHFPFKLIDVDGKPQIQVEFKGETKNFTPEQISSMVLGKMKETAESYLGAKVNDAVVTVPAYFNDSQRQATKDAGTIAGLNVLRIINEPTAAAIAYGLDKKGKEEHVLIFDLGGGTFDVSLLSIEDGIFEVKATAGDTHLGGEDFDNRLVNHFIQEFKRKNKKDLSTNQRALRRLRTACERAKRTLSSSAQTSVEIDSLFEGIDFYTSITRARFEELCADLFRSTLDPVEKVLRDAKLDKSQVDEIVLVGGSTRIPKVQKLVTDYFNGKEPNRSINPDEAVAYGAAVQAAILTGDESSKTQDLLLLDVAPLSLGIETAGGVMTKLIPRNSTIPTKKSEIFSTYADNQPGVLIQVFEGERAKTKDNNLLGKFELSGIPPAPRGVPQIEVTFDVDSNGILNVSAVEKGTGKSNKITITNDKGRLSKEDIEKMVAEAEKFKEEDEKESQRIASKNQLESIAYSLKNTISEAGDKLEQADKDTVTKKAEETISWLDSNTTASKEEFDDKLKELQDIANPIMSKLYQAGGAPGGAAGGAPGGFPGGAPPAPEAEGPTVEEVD
yeast Hsc70 (Ssa1p), sequence (P03070 whole entry, further chain): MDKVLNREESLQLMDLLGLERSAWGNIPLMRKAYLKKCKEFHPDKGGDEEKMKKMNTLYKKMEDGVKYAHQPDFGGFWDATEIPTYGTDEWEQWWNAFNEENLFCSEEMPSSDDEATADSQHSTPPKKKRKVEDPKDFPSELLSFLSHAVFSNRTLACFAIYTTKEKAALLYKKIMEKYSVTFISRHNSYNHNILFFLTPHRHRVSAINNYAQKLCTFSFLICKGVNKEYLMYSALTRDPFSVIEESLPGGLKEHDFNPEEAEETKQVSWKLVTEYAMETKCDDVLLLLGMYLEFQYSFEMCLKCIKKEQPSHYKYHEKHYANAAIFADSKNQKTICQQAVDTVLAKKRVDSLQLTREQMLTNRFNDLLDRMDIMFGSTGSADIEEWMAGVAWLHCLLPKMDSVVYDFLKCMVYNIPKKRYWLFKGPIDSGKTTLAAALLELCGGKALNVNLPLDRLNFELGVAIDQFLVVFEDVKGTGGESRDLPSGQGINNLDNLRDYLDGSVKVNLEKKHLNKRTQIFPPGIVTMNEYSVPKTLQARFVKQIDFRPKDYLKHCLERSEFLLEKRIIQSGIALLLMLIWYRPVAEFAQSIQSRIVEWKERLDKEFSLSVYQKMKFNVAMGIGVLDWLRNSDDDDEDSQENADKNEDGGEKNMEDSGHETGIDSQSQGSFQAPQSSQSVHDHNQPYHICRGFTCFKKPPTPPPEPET

CCCCCCCCCCCCC/C=C/[C@@H](O)[C@H](COC1O[C@H](CO)[C@H](O)[C@H](OS(=O)(=O)O)[C@H]1O)NC(=O)CC12CC3CC(CC(C3)C1)C2 (stereo partly shown) [adaSGC]
pKi: ~5.00
